Experimental data published in patent publication US10975056B2 (GlaxoSmithKline Intellectual Property Development Limited, priority 2016, dated 2021).
Where a name gives a salt, the structure may show the parent alone. Read-outs that look alike come from different tables or passages of the source.

What was measured:
[1] = system: erythroid progenitor cells (EPCs); test: Fetal hemoglobin (HbF) ELISA in day 7 erythroid progenitor cells; type: cell-based, human; settings: Homo sapiens, Erythroid progenitor cell, HbF ELISA, day 7 EPCs, 5 days; read-out: EPC ELISA (pEC50 category) (converted);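 further: for fetal hemoglobin induction normalized to vehicle-treated cells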
Method in brief: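 HbF induction was read by anti-HbF sandwich ELISA (HRP/TMB, OD450) on lysates and normalized to vehicle-treated cells. Cells were day 7 erythroid progenitors derived from human bone marrow CD34+ cells, seeded at 1,000/well with 3 U/mL rhEPO. Compound was given for 5 days at 37 °C at final concentrations […].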

DNMT3B = DNMT3B (Homo sapiens (Human), UniProt Q9UBC3); test: DNMT3B breaklight assay; type: biochemical
human DNMT3a/3l = human DNMT3a/3l (Homo sapiens (Human), UniProt Q9Y6K1); test: DNMT3a/3l breaklight assay; type: biochemical
human DNMT3a/3l, sequence (Q9Y6K1 whole entry, looked up): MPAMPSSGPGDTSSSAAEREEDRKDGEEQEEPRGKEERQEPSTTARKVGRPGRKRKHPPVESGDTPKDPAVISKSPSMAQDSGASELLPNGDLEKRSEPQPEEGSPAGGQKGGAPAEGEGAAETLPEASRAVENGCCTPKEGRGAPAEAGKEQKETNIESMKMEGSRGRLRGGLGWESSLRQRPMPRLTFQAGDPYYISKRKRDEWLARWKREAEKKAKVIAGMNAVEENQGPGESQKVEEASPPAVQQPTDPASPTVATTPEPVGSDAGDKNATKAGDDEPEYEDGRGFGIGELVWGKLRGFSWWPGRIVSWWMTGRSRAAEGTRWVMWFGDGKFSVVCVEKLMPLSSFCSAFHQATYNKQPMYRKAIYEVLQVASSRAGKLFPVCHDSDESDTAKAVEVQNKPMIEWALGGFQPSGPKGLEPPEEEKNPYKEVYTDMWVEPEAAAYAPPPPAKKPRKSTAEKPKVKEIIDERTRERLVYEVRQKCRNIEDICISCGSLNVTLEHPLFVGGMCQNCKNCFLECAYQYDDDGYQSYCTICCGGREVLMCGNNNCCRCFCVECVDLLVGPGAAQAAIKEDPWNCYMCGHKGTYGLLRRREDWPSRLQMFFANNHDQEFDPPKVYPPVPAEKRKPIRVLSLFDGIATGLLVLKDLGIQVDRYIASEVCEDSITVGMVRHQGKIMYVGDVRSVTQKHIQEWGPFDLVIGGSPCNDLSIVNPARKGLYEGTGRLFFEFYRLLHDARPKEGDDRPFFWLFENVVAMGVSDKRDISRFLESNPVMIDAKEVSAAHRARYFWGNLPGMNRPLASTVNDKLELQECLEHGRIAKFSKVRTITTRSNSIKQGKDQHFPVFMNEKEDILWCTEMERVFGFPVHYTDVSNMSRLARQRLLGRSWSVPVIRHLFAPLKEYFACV
human DNMT3a/3l, sequence (Q9UJW3 whole entry partner, looked up): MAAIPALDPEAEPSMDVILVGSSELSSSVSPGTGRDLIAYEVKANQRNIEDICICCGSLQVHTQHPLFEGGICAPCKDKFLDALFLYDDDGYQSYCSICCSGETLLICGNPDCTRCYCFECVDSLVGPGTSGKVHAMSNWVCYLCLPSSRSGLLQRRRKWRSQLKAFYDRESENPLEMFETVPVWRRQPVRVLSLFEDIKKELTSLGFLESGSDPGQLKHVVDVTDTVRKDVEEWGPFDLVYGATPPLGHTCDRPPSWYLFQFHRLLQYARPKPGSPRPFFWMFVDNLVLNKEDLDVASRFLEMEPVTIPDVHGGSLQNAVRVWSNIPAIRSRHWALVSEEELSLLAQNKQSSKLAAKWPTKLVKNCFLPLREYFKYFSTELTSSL
Method: DNMT3a/3l Breakliqht Assay
DNMT3a/3l breaklight in vitro assays were conducted in a total volume of 50 μl in a standard 384 well format, using black non-binding surface microplates (Corning #3575). […] Negative control wells used 5 μl of DNMT3a/3l and 5 μl of oligonucleotide but also included 200 μM SAH. All reagents were made up in 1× assay buffer (20 mM Tris pH 7.4, 100 mM NaCl, 1.5 mM EDTA, 0.1 mM MgCl2, 1 mM CHAPS and 1 mM DTT). The reaction was incubated at 37° C. for 90 min and then stopped with the addition of 40 μl detection reagent. Detection reagent, made up in 1× Gla assay buffer (20 mM Tris pH 8.0, 80 mM NaCl, 0.75 mM MgCl2, 0.01% Triton X100 and 1 mM DTT) has a final concentration of 200 μM SAH (Sigma #A9384) and 0.0008 units/μl Gla1 restriction endonuclease (Sibenzyme #E494). Following addition of the detection reagent the plate was incubated in the dark at room temperature for 5 hr. Fluorescence intensity was then measured on the PHERAstar FS (BMG Labtech) at Ex 485 nm and Em 520 nm, with a gain of 400 and an integration time of 100 ms.

DNMT1 = DNMT1 (Homo sapiens, UniProt P26358); test: DNMT1 biochemical activity, breaklight assay and/or SPA assay
DNMT1, sequence (P26358 whole entry, looked up): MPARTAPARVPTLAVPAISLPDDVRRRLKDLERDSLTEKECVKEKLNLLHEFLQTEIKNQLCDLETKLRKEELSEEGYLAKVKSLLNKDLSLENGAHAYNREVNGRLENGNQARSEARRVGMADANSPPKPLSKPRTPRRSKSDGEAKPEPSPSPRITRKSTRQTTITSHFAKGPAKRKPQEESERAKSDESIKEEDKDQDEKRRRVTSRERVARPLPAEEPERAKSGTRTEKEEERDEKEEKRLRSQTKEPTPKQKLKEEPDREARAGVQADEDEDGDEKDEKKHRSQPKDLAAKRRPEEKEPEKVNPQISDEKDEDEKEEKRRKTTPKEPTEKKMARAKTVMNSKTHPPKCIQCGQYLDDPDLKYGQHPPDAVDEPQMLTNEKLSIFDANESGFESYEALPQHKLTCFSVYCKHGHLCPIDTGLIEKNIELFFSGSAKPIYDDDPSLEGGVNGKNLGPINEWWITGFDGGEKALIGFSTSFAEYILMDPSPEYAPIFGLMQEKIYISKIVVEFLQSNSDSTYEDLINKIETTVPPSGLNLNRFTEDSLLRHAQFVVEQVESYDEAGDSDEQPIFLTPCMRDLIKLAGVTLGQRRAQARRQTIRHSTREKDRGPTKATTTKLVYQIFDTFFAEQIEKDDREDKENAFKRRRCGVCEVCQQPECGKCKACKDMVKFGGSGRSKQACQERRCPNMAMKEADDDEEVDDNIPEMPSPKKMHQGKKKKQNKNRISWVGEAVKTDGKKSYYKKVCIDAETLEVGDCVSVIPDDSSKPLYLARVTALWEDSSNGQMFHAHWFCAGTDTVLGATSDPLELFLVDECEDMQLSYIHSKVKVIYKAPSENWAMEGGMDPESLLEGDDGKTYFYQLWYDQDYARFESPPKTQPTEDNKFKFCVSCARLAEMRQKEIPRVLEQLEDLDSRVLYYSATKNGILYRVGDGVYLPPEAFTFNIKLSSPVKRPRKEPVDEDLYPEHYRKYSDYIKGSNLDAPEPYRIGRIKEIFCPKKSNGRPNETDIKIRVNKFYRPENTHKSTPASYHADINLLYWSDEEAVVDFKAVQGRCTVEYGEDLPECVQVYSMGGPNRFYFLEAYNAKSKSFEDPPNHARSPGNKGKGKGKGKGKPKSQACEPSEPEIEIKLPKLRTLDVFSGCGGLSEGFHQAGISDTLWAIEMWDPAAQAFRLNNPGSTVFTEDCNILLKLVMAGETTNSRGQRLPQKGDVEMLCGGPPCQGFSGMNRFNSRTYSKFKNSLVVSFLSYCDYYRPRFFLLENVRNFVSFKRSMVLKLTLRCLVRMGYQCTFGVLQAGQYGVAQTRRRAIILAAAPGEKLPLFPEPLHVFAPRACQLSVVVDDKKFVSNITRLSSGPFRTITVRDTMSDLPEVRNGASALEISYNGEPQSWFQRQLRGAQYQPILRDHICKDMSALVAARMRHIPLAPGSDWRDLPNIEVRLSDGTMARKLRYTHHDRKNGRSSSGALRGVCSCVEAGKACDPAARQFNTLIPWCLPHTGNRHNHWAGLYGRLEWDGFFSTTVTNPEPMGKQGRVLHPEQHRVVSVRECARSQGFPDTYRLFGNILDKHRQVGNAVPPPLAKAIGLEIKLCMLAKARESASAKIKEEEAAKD

[2] = read-out: DNMT3B Breaklight IC50
[3] = read-out: DNMT3A Breaklight IC50
[4] = binned activity in either the breaklight or the SPA assay, read-out: DNMT1 BioChemical (pIC50 category) (converted)
[5] = repeated experimental runs, read-out: average IC50, DNMT3B breaklight assay
[6] = repeated experimental runs, read-out: average IC50, DNMT3A breaklight assay
[7] = binned activity in either the breaklight or the SPA assay
[8] = breaklight assay and/or SPA assay, repeated experimental runs, read-out: average pIC50 against DNMT1 (converted)
[9] = breaklight assay and/or SPA assay, repeated experimental runs

SMILES | EC50 [1] | IC50 (DNMT3B; [2]) | IC50 (human DNMT3a/3l; [3]) | IC50 (DNMT1; [4]) | IC50 (DNMT3B; [5]) | IC50 (human DNMT3a/3l; [6]) | DNMT1 BioChemical (pIC50 category) (DNMT1; [7]) | IC50 (DNMT1; [8]) | average pIC50 against DNMT1 (DNMT1; [9]) | average pIC50 against DNMT1 (DNMT1; breaklight assay and/or SPA assay, repeated experimental runs, Trifluoroacetic Acid Salt)
CCc1c(C#N)c(N)nc(SC(C(N)=O)c2ccccc2)c1C#N (centres unmarked) [Example 1, 2-[(6-amino-3,5-dicyano-4-ethylpyridin-2-yl)sulfanyl]-2-phenylacetamide] | > 31.6 µM | > 500 µM | 417 µM | 1 to 31.6 µM |  |  |  |  |  | 
CCc1c(C#N)c(N)nc(S[C@@H](C(N)=O)c2ccccc2)c1C#N [Example 2, (R)-[(6-amino-3,5-dicyano-4-ethylpyridin-2-yl)sulfanyl]-2-phenylacetamide] | > 31.6 µM | > 500 µM | > 500 µM | 0.316 to 1 µM |  |  |  |  |  | 
CCc1c(C#N)c(SC(C(N)=O)c2ccccc2)nc(N(C)C)c1C#N (centres unmarked) [Example 3, 2-{[3,5-dicyano-6-(dimethylamino)-4-ethylpyridin-2-yl]sulfanyl}-2-phenylacetamide] | 0.316 to 1 µM | > 500 µM |  |  | > 500 µM |  |  |  |  | 
CCCN1CCCN(c2nc(SC(C(N)=O)c3ccccc3)c(C#N)c(CC)c2C#N)CC1 (centres unmarked) [Example 6, 2-((3,5-dicyano-4-ethyl-6-(4-propyl-1,4-diazepan-1-yl)pyridin-2-yl)thio)-2-phenylacetamide] | < 0.316 µM | > 500 µM | > 500 µM |  | > 500 µM | > 500 µM | D (Category D: ≥6.5) |  |  | 
CCc1c(C#N)c(SC(C(N)=O)c2ccccc2)nc(N2CCCN(CC)CC2)c1C#N (centres unmarked) [Example 7, 2-{[3,5-dicyano-4-ethyl-6-(4-ethyl-1,4-diazepan-1-yl)pyridin-2-yl]sulfanyl}-2-phenylacetamide] | < 0.316 µM | > 500 µM | > 500 µM |  | > 500 µM | > 500 µM | D (Category D: ≥6.5) |  |  | 
CCc1c(C#N)c(SC(C(N)=O)c2ccccc2)nc(N2CCC(N3CCNC3=O)CC2)c1C#N (centres unmarked) [Example 47, 2-((3,5-Dicyano-4-ethyl-6-(4-(2-oxoimidazolidin-1-yl)piperidin-1-yl)pyridin-2-yl)thio)-2-phenylacetamide] | 0.316 to 1 µM | > 500 µM | > 500 µM | 0.316 to 1 µM | > 500 µM | > 500 µM |  |  |  | 
CCc1c(C#N)c(SC(C(N)=O)c2ccccc2)nc(N2CC[C@H](O)C2)c1C#N (stereo partly drawn) [Example 49, 2-((3,5-Dicyano-4-ethyl-6-((S)-3-hydroxypyrrolidin-1-yl)pyridin-2-yl)thio)-2-phenylacetamide] | 0.316 to 1 µM | > 500 µM | > 500 µM |  |  |  | D (Category D: ≥6.5) |  |  | 
CCc1c(C#N)c(SC(C(N)=O)c2ccccc2)nc(N2CCNC(=O)C2)c1C#N (centres unmarked) [Example 50, 2-((3,5-Dicyano-4-ethyl-6-(3-oxopiperazin-1-yl)pyridin-2-yl)thio)-2-phenylacetamide] | < 0.316 µM | > 500 µM | > 500 µM | 0.316 to 1 µM |  |  |  |  |  | 
CCc1c(C#N)c(SC(C(N)=O)c2ccccc2)nc(N2CCC(NC(=O)[C@H](C)N)CC2)c1C#N (stereo partly drawn) [Example 138, (2S)-2-Amino-N-(1-(6-((2-amino-2-oxo-1-phenylethyl)thio)-3,5-dicyano-4-ethylpyridin-2-yl)piperidin-4-yl)propanamide, Trifluoroacetic Acid Salt] | < 0.316 µM | 167 µM |  |  |  |  | D (Category D: ≥6.5) | 0.1 µM |  | > 6.5

Further lines, with some results ahead:

EC50 [1] | IC50 (DNMT3B; [2]) | IC50 (human DNMT3a/3l; [3]) | IC50 (DNMT1; [4]) | IC50 (DNMT3B; [5]) | IC50 (human DNMT3a/3l; [6]) | DNMT1 BioChemical (pIC50 category) (DNMT1; [7]) | IC50 (DNMT1; [8]) | average pIC50 against DNMT1 (DNMT1; [9]) | SMILES | average pIC50 against DNMT1 (DNMT1; breaklight assay and/or SPA assay, repeated experimental runs, Trifluoroacetic Acid Salt)
> 31.6 µM | > 500 µM | > 500 µM | 0.316 to 1 µM |  |  |  |  |  | N#Cc1c(N)nc(SC(C(N)=O)c2ccccc2)c(C#N)c1C1CC1 (centres unmarked) [Example 51, 2-[(6-amino-3,5-dicyano-4-cyclopropyl-2-pyridyl)sulfanyl]-2-phenyl-acetamide] | 
1 to 31.6 µM | > 500 µM | > 500 µM | 0.316 to 1 µM | > 500 µM | > 500 µM |  |  |  | CCc1c(C#N)c(NC)nc(SC(C(N)=O)c2ccccc2)c1C#N (centres unmarked) [Example 52, 2-((3,5-Dicyano-4-ethyl-6-(methylamino)pyridin-2-yl)thio)-2-phenylacetamide] | 
1 to 31.6 µM | > 250 µM |  | 1 to 31.6 µM |  |  |  | ≥ 1 µM |  | CCc1c(C#N)c(SCc2ccc(=O)[nH]c2)nc(N(C)C)c1C#N [Example 74, 2-(Dimethylamino)-4-ethyl-6-(((6-oxo-1,6-dihydropyridin-3-yl)methyl)thio)pyridine-3,5-dicarbonitrile] | 
0.316 to 1 µM | > 250 µM |  |  |  |  |  |  |  | CCc1c(C#N)c(SCc2ccc(S(N)(=O)=O)cc2)nc(N2CCCN(C)CC2)c1C#N [Example 76, 4-(((3,5-Dicyano-4-ethyl-6-(4-methyl-1,4-diazepan-1-yl)pyridin-2-yl)thio)methyl)benzenesulfonamide] | 
< 0.316 µM | > 250 µM |  |  |  |  | D (Category D: ≥6.5) |  | > 6.5 | CCc1c(C#N)c(SCc2ccc(CNC(C)=O)cc2)nc(N2CCCN(C)CC2)c1C#N [Example 77, N-(4-(((3,5-Dicyano-4-ethyl-6-(4-methyl-1,4-diazepan-1-yl)pyridin-2-yl)thio)methyl)benzyl)acetamide] | 
> 31.6 µM | > 250 µM |  | 0.316 to 1 µM |  |  |  | ≥ 1 µM |  | CCc1c(C#N)c(SCc2ccccc2)nc(N2CCC(N)CC2)c1C#N [Example 81, 2-(4-Aminopiperidin-1-yl)-6-(benzylthio)-4-ethylpyridine-3,5-dicarbonitrile] | 
< 0.316 µM | > 250 µM |  |  |  |  | D (Category D: ≥6.5) |  | > 6.5 | CCc1c(C#N)c(SCc2ccc(CC(N)=O)cc2)nc(N2CCCN(C)CC2)c1C#N [Example 83, 2-(4-(((3,5-dicyano-4-ethyl-6-(4-methyl-1,4-diazepan-1-yl)pyridin-2-yl)thio)methyl)phenyl)acetamide] | 
< 0.316 µM | > 250 µM |  |  |  |  | D (Category D: ≥6.5) |  |  | CCc1c(C#N)c(SCc2ccc(CC(=O)NC)cc2)nc(N2CCCN(C)CC2)c1C#N [Example 84, 2-(4-(((3,5-Dicyano-4-ethyl-6-(4-methyl-1,4-diazepan-1-yl)pyridin-2-yl)thio)methyl)phenyl)-N-methylacetamide] | 
< 0.316 µM | > 250 µM |  |  |  |  | D (Category D: ≥6.5) | 0.2 µM | > 6.5 | CCc1c(C#N)c(SCc2ccc(CNC(=O)CO)cc2)nc(N2CCCN(C)CC2)c1C#N [Example 86, N-(4-(((3,5-Dicyano-4-ethyl-6-(4-methyl-1,4-diazepan-1-yl)pyridin-2-yl)thio)methyl)benzyl)-2-hydroxyacetamide] | 
< 0.316 µM | 254 µM |  |  |  |  | D (Category D: ≥6.5) |  |  | CCc1c(C#N)c(SCc2ccc(S(=O)(=O)NC)cc2)nc(N2CCCN(C)CC2)c1C#N [Example 104, 4-(((3,5-Dicyano-4-ethyl-6-(4-methyl-1,4-diazepan-1-yl)pyridin-2-yl)thio)methyl)-N-methylbenzenesulfonamide] | 
1 to 31.6 µM |  |  |  |  |  | D (Category D: ≥6.5) |  |  | CCc1c(C#N)c(S[C@@H](C(N)=O)c2ccccc2)nc(N(C)CCCO)c1C#N [Example 695, (R)-2-((3,5-dicyano-4-ethyl-6-((3-hydroxypropyl)(methyl)amino)pyridin-2-yl)thio)-2-phenylacetamide] | 
< 0.316 µM |  |  |  |  |  | D (Category D: ≥6.5) |  |  | CCc1c(C#N)c(SC(C(N)=O)c2ccccc2)nc(N2CCC(N3CC(OC)C3)CC2)c1C#N (centres unmarked) [Example 697, 2-((3,5-dicyano-4-ethyl-6-(4-(3-methoxyazetidin-1-yl)piperidin-1-yl)pyridin-2-yl)thio)-2-phenylacetamide] | 
< 0.316 µM |  |  |  |  |  | D (Category D: ≥6.5) |  |  | CCc1c(C#N)c(SC(C(N)=O)c2ccc(F)cc2)nc(N2CCC(N3CC(OC)C3)CC2)c1C#N (centres unmarked) [Example 698, 2-((3,5-dicyano-4-ethyl-6-(4-(3-methoxyazetidin-1-yl)piperidin-1-yl)pyridin-2-yl)thio)-2-(4-fluorophenyl)acetamide] | 
1 to 31.6 µM |  |  | 0.316 to 1 µM |  |  |  |  |  | CCc1c(C#N)c(SC(C(N)=O)c2ccccc2)nc(N(C)C2CCN(C)C2)c1C#N (centres unmarked) [Example 699, 2-((3,5-dicyano-4-ethyl-6-(methyl(1-methylpyrrolidin-3-yl)amino)pyridin-2-yl)thio)-2-phenylacetamide] | 
